Values of other authors in patent US20070166227A1, “Crowned dithiocarbamate metal complexes and methods for their use” (priority 2004, published 2007).

## O=C(O)C1CCCN1C(=S)[S-].O=C(O)C1CCCN1C(=S)[S-].[Cu+2] (centres unmarked) [Cu(ProDTC)2]
Log β1
  binding affinity for NO: log β1: 9.74
Log β2
  binding affinity for NO: log β2: 15.44
